# Laboratory results taken from patent US8211931B2, “Active compound combinations having insecticidal and acaricidal properties” (Bayer Cropscience AG, priority 2006, dated 2012).
# Legend:
# Assay type in all cases: in vivo
# Psylla pyri = assay: Field test on pear trees against pear psyllids, kill of L-1 and L-4 nymphs; details: for Activity (% Abbott) Psylla piri L-1: L-1 nymphs; for Activity (% Abbott) Psylla piri L-4: L-4 nymphs
# Protocol: In 4 replications, pear trees of the cultivar “Conference” of a height of about 3 m are treated against pear psyllids, Psylla pyri. Here, the active compound (I-4′) (100 OD) and the commercial standard Amitraz (UL 400) are applied at the stated application rates. The application is carried out using a knapsack sprayer and an application rate of 1000 l of water/ha. The beneficial species Anthocoris nemoralis appears 14 days after the treatment.
# Evaluation is carried out 4, 8 and 14 days after the treatment by evaluating the kill of the L-1 nymphs and the L-4 nymphs on the branches.
# Myzus persicae = Myzus persicae test (cabbage leaves sprayed, ladybird larvae added); details: 4 ppm, active compound alone
# Protocol: (§1) To produce a suitable preparation of active compound, 1 part by weight of active compound is mixed with the stated amounts of solvent and emulsifier, and the concentrate is diluted with emulsifier-containing water to the desired concentration.
# Cabbage leaves (Brassica oleracea) infested by the green peach aphid (Myzus persicae) are treated by being sprayed with the preparation of active compound at the desired concentration.
# After the desired period of time, a defined amount of ladybird larvae (Coccinella septempunctata) is added.
# After the desired period of time, the kill of the pest in % is determined. 100% means that all aphids have been killed; 0% means that none of the aphids have been killed.
# The determined kill rates are entered into Colby's formula.
# Bemisia tabaci = Bemisia tabaci test (cotton leaves sprayed, mirid bugs added); details: 0.16 ppm, active compound alone
# Protocol: as §1
# Cotton leaves (Gossypium hirsutum) infested by the whitefly (Bemisia tabacii) are treated by being sprayed with the preparation of active compound at the desired concentration.
# After the desired period of time, a defined amount of mirid bugs (Macrolophus caliginosus) is added.
# After the desired period of time, the kill of the pest in % is determined. 100% means that all whiteflies have been killed; 0% means that none of the whiteflies have been killed. The determined kill rates are entered into Colby's formula.
# Eriosoma lanigerum = assay: Field test on apple trees against woolly apple aphids, kill according to Abbott
# Protocol: In three replications, in each case three about 25-year old apple trees (crown height about 2 m) of the cultivar “Elan” are treated against woolly apple aphids, Eriosoma lanigerum. Here, the active compound (I-4′) (150 OD) and the commercial standard clothianidin (WG 50) are tested comparatively at the stated application rates in the presence of the woolly aphid parasite (beneficial species) Aphelinus mali. The application is carried out using an atomizer at a water application rate of 500 l/ha. Both one and two applications at an interval of 34 days are carried out.
# Evaluation is carried out 7, 30, 44, 52, 59, 66 and 73 days after the first treatment by evaluating the kill of the adult pests and the number of parasitic pests in each case 10 colonies according to Abbott.
# [1] = 8 d, 400 g/ha/m crown height, UL 400
# [2] = 14 d, 400 g/ha/m crown height, UL 400
# [3] = 8 d, 75 g/ha/m crown height, 100 OD
# [4] = 14 d, 75 g/ha/m crown height, 100 OD
structure (smiles),measurement,setting,value
"Cc1ccc(/N=C/N(C)/C=N/c2ccc(C)cc2C)c(C)c1 [Amitraz, reference compound]",Activity (% Abbott) Psylla piri L-1,"Psylla pyri; 4 d, 400 g/ha/m crown height, UL 400, pear trees",23.6 % Abbott
same,Activity (% Abbott) Psylla piri L-1,Psylla pyri; [1],41.0 % Abbott
same,Activity (% Abbott) Psylla piri L-1,Psylla pyri; [2],41.8 % Abbott
same,Activity (% Abbott) Psylla piri L-4,"Psylla pyri; 4 d, 400 g/ha/m crown height, UL 400",0.0 % Abbott
same,Activity (% Abbott) Psylla piri L-4,Psylla pyri; [1],44.6 % Abbott
same,Activity (% Abbott) Psylla piri L-4,Psylla pyri; [2],44.4 % Abbott
CCOC(=O)OC1=C(c2cc(C)ccc2C)C(=O)N[C@]12CC[C@@H](OC)CC2 [Ex. I-4′],Activity (% Abbott) Psylla piri L-1,"Psylla pyri; 4 d, 75 g/ha/m crown height, 100 OD, pear trees",62.7 % Abbott
same,Activity (% Abbott) Psylla piri L-1,Psylla pyri; [3],69.5 % Abbott
same,Activity (% Abbott) Psylla piri L-1,Psylla pyri; [4],76.6 % Abbott
same,Activity (% Abbott) Psylla piri L-4,"Psylla pyri; 4 d, 75 g/ha/m crown height, 100 OD",91.4 % Abbott
same,Activity (% Abbott) Psylla piri L-4,Psylla pyri; [3],98.4 % Abbott
same,Activity (% Abbott) Psylla piri L-4,Psylla pyri; [4],99.3 % Abbott
same,Kill in % after 7 d,Myzus persicae,10%
same,Kill in % after 14 d,Bemisia tabaci,0%
same,Activity (% Abbott) Eriosoma lanigerum,"Eriosoma lanigerum; 7 d, 75 g/ha/m crown height, 150 OD, one treatment, apple trees, Aphelinus mali present",48 % Abbott
same,Activity (% Abbott) Eriosoma lanigerum,"Eriosoma lanigerum; 30 d, 75 g/ha/m crown height, 150 OD, one treatment",95 % Abbott
same,Activity (% Abbott) Eriosoma lanigerum,"Eriosoma lanigerum; 44 d, 75 g/ha/m crown height, 150 OD, one treatment",99 % Abbott
same,Activity (% Abbott) Eriosoma lanigerum,"Eriosoma lanigerum; 52 d, 75 g/ha/m crown height, 150 OD, one treatment",99.4 % Abbott
same,Activity (% Abbott) Eriosoma lanigerum,"Eriosoma lanigerum; 59 d, 75 g/ha/m crown height, 150 OD, one treatment",98.2 % Abbott
same,Activity (% Abbott) Eriosoma lanigerum,"Eriosoma lanigerum; 66 d, 75 g/ha/m crown height, 150 OD, one treatment",98 % Abbott
same,Activity (% Abbott) Eriosoma lanigerum,"Eriosoma lanigerum; 73 d, 75 g/ha/m crown height, 150 OD, one treatment",98 % Abbott
same,Activity against Eriosoma lanigerum,Eriosoma lanigerum; after two treatments,100%
"CN/C(=N\[N+](=O)[O-])NCc1cnc(Cl)s1 [Clothianidin, clothianidin, reference compound]",Activity (% Abbott) Eriosoma lanigerum,"Eriosoma lanigerum; 7 d, 37.5 g/ha/m crown height, WG 50, two treatments, apple trees, Aphelinus mali present",71 % Abbott
same,Activity (% Abbott) Eriosoma lanigerum,"Eriosoma lanigerum; 30 d, 37.5 g/ha/m crown height, WG 50, two treatments",76 % Abbott
same,Activity (% Abbott) Eriosoma lanigerum,"Eriosoma lanigerum; 44 d, 37.5 g/ha/m crown height, WG 50, two treatments",85 % Abbott
same,Activity (% Abbott) Eriosoma lanigerum,"Eriosoma lanigerum; 52 d, 37.5 g/ha/m crown height, WG 50, two treatments",81.8 % Abbott
same,Activity (% Abbott) Eriosoma lanigerum,"Eriosoma lanigerum; 59 d, 37.5 g/ha/m crown height, WG 50, two treatments",81.8 % Abbott
same,Activity (% Abbott) Eriosoma lanigerum,"Eriosoma lanigerum; 66 d, 37.5 g/ha/m crown height, WG 50, two treatments",80 % Abbott
same,Activity (% Abbott) Eriosoma lanigerum,"Eriosoma lanigerum; 73 d, 37.5 g/ha/m crown height, WG 50, two treatments",80 % Abbott
